In PMC10997755, “Discovery of a small-molecule inhibitor that traps Polθ on DNA and synergizes with PARP inhibitors” (Nature Communications, 2024):
Several values for one entry are separate records, joined by “and”; a condition that tells them apart may be missing. Equal values may be shown once. Entries after “also recorded” stand apart in the source; their conditions may differ.

Tests used:
[1] = Clonogenic assay, OLA with or without RTX-161 (Fig. 2 a; cell line not given); format: cell-based; details: vehicle, single experiments
[2] = tested on: DLD1 BRCA2 -/- cells; experiment: Clonogenic assay; format: cell-based; details: for average / percent suvival / replicate counts: vehicle, DLD1-BRCA2 null cells
Procedure: (§1) Cells were plated on six or twelve or twenty-four well plates. In six well plate, 1000 cells/ well of BRCA2 -/-, BRCA1 -/-, PALB2 mut and 500 cells/ well of wildtype pair was plated; In twelve well plate, 600 cells/ well of BRCA2 -/-, BRCA1 -/-, PALB2 mut and 400 cells/ well of wildtype pair was plated; In twenty-four well plate, 500 cells/ well of BRCA2 -/-, BRCA1 -/-, PALB2 mut and 300 cells/ well of wildtype pair was plated. For MEFs, 300 cells per well in six-well plate were seeded. The medium was replaced every 2 days until the colonies were ready for staining in 10–12 days. For staining: Medium was removed from plates, and cells were rinsed with PBS. Fixation was carried out with—Water: Ethanol: Acetic acid (5:4:1) for 30 min followed by staining of colonies with 0.5% crystal violet in Water: Ethanol (3:2) for 2 h at room temperature. The plates were rinsed with water and left for drying overnight at room temperature. Colonies were then counted and IC50 was calculated using results from 3 or more independent experiments. Response curves are shown as mean colony formation +/- S.E.M.
(§2) Data are expressed as mean ± SEM from at least 3 independent experiments with triplicates for each condition unless stated otherwise. When conducting comparison between two groups, two-tailed unpaired t-test was used. Significance was assumed at p < 0.05. Asterisks in the figures indicate significance, ^∗p < 0.05, ^∗∗p < 0.01, ^∗∗∗p < 0.001. Combenefit® software version 2.021 was used to perform synergy analyses for drug combinations between RTx-161 and PARPi. GraphPad Prism 9 software was used to calculate IC50.

[3] = tested on: DLD1 Parental cells; experiment: Clonogenic assay; format: cell-based; details: Olaparib 1 μM, BRCA2-WT
Procedure: as §1

[4] = tested on: MDA-MB-231 cells; experiment: Clonogenic assay; format: cell-based; details: Fig. 2f, vehicle (Rtx-161 zero)
Procedure: as §1, §2

[5] = biological target: T1, Polθ-pol (Homo sapiens, UniProt O75417); experiment: Cy5 fluorescence Polθ-pol DNA synthesis (strand displacement) IC50 assay; format: biochemical; details: 5 nM PolQ, 18 min
T1 construct: purified recombinant human Polθ-pol (comprising amino acid residues 1792–2590); made in house
T1 sequence (O75417 1792-2590): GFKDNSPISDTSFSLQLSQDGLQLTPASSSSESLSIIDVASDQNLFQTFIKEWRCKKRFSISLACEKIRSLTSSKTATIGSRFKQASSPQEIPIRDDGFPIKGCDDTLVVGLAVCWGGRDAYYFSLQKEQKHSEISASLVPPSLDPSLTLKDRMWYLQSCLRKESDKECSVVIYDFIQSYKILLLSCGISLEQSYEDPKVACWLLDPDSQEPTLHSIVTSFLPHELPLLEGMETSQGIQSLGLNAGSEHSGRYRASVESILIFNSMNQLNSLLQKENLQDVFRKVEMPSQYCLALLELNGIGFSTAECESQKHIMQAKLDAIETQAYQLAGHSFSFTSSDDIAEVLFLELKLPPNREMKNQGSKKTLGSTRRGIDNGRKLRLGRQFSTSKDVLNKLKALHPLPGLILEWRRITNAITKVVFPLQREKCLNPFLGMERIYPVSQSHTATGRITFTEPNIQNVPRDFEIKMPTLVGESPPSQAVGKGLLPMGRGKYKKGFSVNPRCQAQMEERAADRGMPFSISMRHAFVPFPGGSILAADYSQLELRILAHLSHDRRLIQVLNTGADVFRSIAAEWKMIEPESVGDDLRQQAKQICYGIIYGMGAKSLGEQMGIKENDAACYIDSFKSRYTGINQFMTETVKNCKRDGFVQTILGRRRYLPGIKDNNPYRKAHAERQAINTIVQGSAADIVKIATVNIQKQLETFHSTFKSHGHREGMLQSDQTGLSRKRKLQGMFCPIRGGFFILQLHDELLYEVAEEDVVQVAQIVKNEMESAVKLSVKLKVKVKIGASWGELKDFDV
Procedure: The following Cy5 fluorescence assay was used to measure the ability of compounds to inhibit Polθ-pol in vitro. The fluorescent based assay was performed as follows: 60 nM of the pre-annealed primer-template containing a 5’ Cy5 fluorophore conjugated template strand (RP486-Cy5), a downstream complementary oligo conjugated with a 3’ Iowa BlackReg Dark quencher (RP343BHQRQ) and a primer strand (RP469D) was mixed with 50 uM 2'-deoxyribonucleoside triphosphates (dNTPs), 0.1 mg/mL Bovine serum albumin (BSA), 0.01% NP-40, 10% glycerol, 1 mM dithiothreitol (DTT), 10 mM MgCl2, 25 mM TrisHCl pH 7.8 in the presence of 2.5% DMSO with or without various concentrations (7-point dilution series) of Polθ-pol small-molecule inhibitors at 37 °C in a volume of 40 μL. The reactions were initiated by the addition of 5 nM of purified recombinant human Polθ-pol (comprising amino acid residues 1792–2590). The reactions were terminated by the addition of 20 mM EDTA after 18 min, and the Cy5 fluorescence intensity was measured using a CLARIOstar (BMG Labtech) plate reader. Reactions were performed in triplicate and the % inhibition at each concentration of the respective compound of Formula I was based on the mean.

In the case of `O=C(c1cc(Cc2n[nH]c(=O)c3ccccc23)ccc1F)N1CCN(C(=O)C2CC2)CC1` [OLA], the percent suvival ([1]; OLA 0.125 nano M) is reported as 98.3333%, the percent suvival ([1]; OLA 0.25 nano M) is reported as 90.8333% and 74.269% and 96.7105% and the percent suvival ([1]; OLA 0.5 nano M) is reported as 67.8363% and 93.4211% and 71.6667%. The percent suvival ([1]; OLA 1 nano M) was 43.3333% and 47.9532% and 73.6842%, the percent suvival ([1]; OLA 2 nano M) was 35% and 27.4854% and 32.2368% and the percent suvival ([1]; OLA 4 nano M) was 17.5% and 9.357% and 9.868%. For the same molecule, the average ([2]; OLA 3.125 nano M) was 100, the percent suvival ([2]; OLA 3.125 nano M) was 96.463% and the replicate counts ([2]; OLA 3.125 nano M) was 99 and 93 and 108. For the same molecule, the average ([2]; OLA 6.25 nano M) was 86, the percent suvival ([2]; OLA 6.25 nano M) was 82.9582% and the replicate counts ([2]; OLA 6.25 nano M) was 84 and 95 and 79. For the same molecule, the average ([2]; OLA 12.50 nano M) was 68.3333, the percent suvival ([2]; OLA 12.50 nano M) was 65.9164% and the replicate counts ([2]; OLA 12.50 nano M) was 64 and 72 and 69. For the same molecule, the average ([2]; OLA 25.00 nano M) was 45.6667, the percent suvival ([2]; OLA 25.00 nano M) was 44.0514% and the replicate counts ([2]; OLA 25.00 nano M) was 49 and 40 and 48. The average ([2]; OLA 50.00 nano M) was 38, the percent suvival ([2]; OLA 50.00 nano M) was 36.6559% and the replicate counts ([2]; OLA 50.00 nano M) was 37 and 42 and 35. For the same molecule, the average ([2]; OLA 100.00 nano M) was 20.3333, the percent suvival ([2]; OLA 100.00 nano M) was 19.6141% and the replicate counts ([2]; OLA 100.00 nano M) was 24 and 18 and 19.
`O=C(c1cc(Cc2n[nH]c(=O)c3ccccc23)ccc1F)N1CCN(C(=O)C2CC2)CC1` [Olaparib, reference compound] gave an Average (colonies) [3] of 102.667, a Percent survival [3] of 99.6764 and an Average (colonies) ([2]; Olaparib 1 μM, BRCA2-NULL) of 0. The Percent survival ([2]; Olaparib 1 μM, BRCA2-NULL) was 0 and the “selective killing / synthetic lethality in BRCA2-null DLD1 cells” value ([2]; colony survival, versus BRCA2-WT) was “selective killing; also recorded: induction of synthetic lethality”.
`Cn1ncnc1[C@H]1c2n[nH]c(=O)c3cc(F)cc(c23)N[C@@H]1c1ccc(F)cc1` [Talazoparib] gave a percent suvival ([4]; Talazoparib 12.5 nano M, experiment block 1 (c0-c7)) of 83.7456%, a percent suvival ([4]; Talazoparib 12.5 nano M, experiment block 2 (c8-c15)) of 90.5063% and a percent suvival ([4]; Talazoparib 12.5 nano M, experiment block 3 (c16-c23)) of 79.3478%. The percent suvival ([4]; Talazoparib 25 nano M, experiment block 1 (c0-c7)) was 72.4382%, the percent suvival ([4]; Talazoparib 25 nano M, experiment block 2 (c8-c15)) was 53.1646% and the percent suvival ([4]; Talazoparib 25 nano M, experiment block 3 (c16-c23)) was 57.0652%. It also gave a percent suvival ([4]; Talazoparib 50 nano M, experiment block 1 (c0-c7)) of 24.735%, a percent suvival ([4]; Talazoparib 50 nano M, experiment block 2 (c8-c15)) of 34.1772% and a percent suvival ([4]; Talazoparib 50 nano M, experiment block 3 (c16-c23)) of 30.9783%.
For ART-558, the “raw signal, Trial 1-3” value ([5]; 0.0016 μM compound, 60 nM 469D/343-BHQRQ/486-Cy5 DNA) was 191.03 and 186.60 and 188.77, the “% Activity, Average” value ([5]; 0.0016 μM compound, 60 nM DNA) was 85.90% and the “% Activity, Trial 1-3” value ([5]; 0.0016 μM compound, 60 nM DNA) was 80.91% and 85.80% and 91.00%. The “% Inhibition, Average” value ([5]; 0.0016 μM compound, 60 nM DNA) was 14.10%, the “raw signal, Average” value ([5]; 0.0016 μM compound, 60 nM DNA) was 188.80 and the “% Activity, Average” value ([5]; 0.0049 μM compound, 60 nM DNA) was 70.18%. For the same molecule, the “% Activity, Trial 1-3” value ([5]; 0.0049 μM compound, 60 nM DNA) was 67.33% and 75.35% and 67.85%, the “% Inhibition, Average” value ([5]; 0.0049 μM compound, 60 nM DNA) was 29.82% and the “% Inhibition, Trial 1-3” value ([5]; 0.0049 μM compound, 60 nM DNA) was 32.67% and 24.65% and 32.15%. The “raw signal, Average” value ([5]; 0.0049 μM compound, 60 nM DNA) was 168.11, the “raw signal, Trial 1-3” value ([5]; 0.0049 μM compound, 60 nM DNA) was 171.92 and 173.21 and 159.20 and the “% Activity, Average” value ([5]; 0.0148 μM compound, 60 nM DNA) was 44.31%. The “% Activity, Trial 1-3” value ([5]; 0.0148 μM compound, 60 nM DNA) was 42.11% and 41.00% and 49.82%, the “% Inhibition, Average” value ([5]; 0.0148 μM compound, 60 nM DNA) was 55.69% and the “% Inhibition, Trial 1-3” value ([5]; 0.0148 μM compound, 60 nM DNA) was 57.89% and 59.00% and 50.18%. The “raw signal, Average” value ([5]; 0.0148 μM compound, 60 nM DNA) was 133.93, the “raw signal, Trial 1-3” value ([5]; 0.0148 μM compound, 60 nM DNA) was 136.44 and 129.18 and 136.16 and the “% Activity, Average” value ([5]; 0.0444 μM compound, 60 nM DNA) was 20.55%. The “% Activity, Trial 1-3” value ([5]; 0.0444 μM compound, 60 nM DNA) was 21.44% and 16.79% and 23.44%, the “% Inhibition, Average” value ([5]; 0.0444 μM compound, 60 nM DNA) was 79.45% and the “% Inhibition, Trial 1-3” value ([5]; 0.0444 μM compound, 60 nM DNA) was 78.56% and 83.21% and 76.56%. For the same molecule, the “raw signal, Average” value ([5]; 0.0444 μM compound, 60 nM DNA) was 102.66, the “raw signal, Trial 1-3” value ([5]; 0.0444 μM compound, 60 nM DNA) was 107.36 and 98.15 and 102.46 and the “% Activity, Average” value ([5]; 0.1333 μM compound, 60 nM DNA) was 6.69%. The “% Activity, Trial 1-3” value ([5]; 0.1333 μM compound, 60 nM DNA) was 5.64% and 7.63% and 6.80%, the “% Inhibition, Average” value ([5]; 0.1333 μM compound, 60 nM DNA) was 93.31% and the “% Inhibition, Trial 1-3” value ([5]; 0.1333 μM compound, 60 nM DNA) was 94.36% and 92.37% and 93.20%. The “raw signal, Average” value ([5]; 0.1333 μM compound, 60 nM DNA) was 84.25, the “raw signal, Trial 1-3” value ([5]; 0.1333 μM compound, 60 nM DNA) was 85.13 and 86.41 and 81.22 and the “% Activity, Average” value ([5]; 0.4000 μM compound, 60 nM DNA) was 2.48%. For the same molecule, the “% Activity, Trial 1-3” value ([5]; 0.4000 μM compound, 60 nM DNA) was 0.51% and 1.19% and 5.76%, the “% Inhibition, Average” value ([5]; 0.4000 μM compound, 60 nM DNA) was 97.52% and the “% Inhibition, Trial 1-3” value ([5]; 0.4000 μM compound, 60 nM DNA) was 99.49% and 98.81% and 94.24%. For the same molecule, the “raw signal, Average” value ([5]; 0.4000 μM compound, 60 nM DNA) was 78.65 and the “raw signal, Trial 1-3” value ([5]; 0.4000 μM compound, 60 nM DNA) was 77.91 and 78.16 and 79.89.
